Read-outs that look alike come from different tables or passages of the source. Positions of bridges follow the written chain, without caps; N, C: chain ends. Non-standard residues stand in square brackets, D forms with d. Residues, ends and D or L forms follow the SMILES beside them. dPhe(4-CN) = N#Cc1ccc(C[C@@H](N)C(=O)O)cc1; Orn = NCCC[C@H](N)C(=O)O

The record followed here is patent US9040663B2, “Melanocortin receptor-specific peptides” (AstraZeneca AB, priority 2009, dated 2015).

The target of test [1] is T1, hMC4-R (Homo sapiens (Human), UniProt P32245). Nature of the test: Competitive inhibition binding assay using [I125]-NDP-α-MSH, hMC4-R. The note with it: membranes of HEK-293 cells expressing recombinant hMC4-R, read-out: MC4-R Ki. How it is done:
7.1 Competitive Inhibition Assay using [I^125]-NDP-α-MSH.
A competitive inhibition binding assay was performed for exemplified peptides according to the invention using membrane homogenates prepared from HEK-293 cells that express recombinant hMC4-R, hMC3-R, or hMC5-R, and from B-16 mouse melanoma cells (containing endogenous MC1-R). In some instances, HEK-293 cells that express recombinant hMC1-R were employed. Assays were performed in 96 well GF/B Millipore multiscreen filtration plates (MAFB NOB10) pre-coated with 0.5% bovine serum albumin (Fraction V). Membrane homogenates were incubated with 0.2 nM (for hMC4-R) 0.4 nM (for MC3-R and MC5-R) or 0.1 nM (for mouse B16 MC1-R or hMC1-R) [I^125]-NDP-α-MSH (Perkin Elmer) and increasing concentrations of test peptides of the present invention in buffer containing 25 mM HEPES buffer (pH 7.5) with 100 mM NaCl, 2 mM CaCl2, 2 mM MgCl2, 0.3 mM 1,10-phenanthroline, and 0.2% bovine serum albumin. After incubation for 60 minutes at 37° C., the assay mixture was filtered and the membranes washed three times with ice-cold buffer. Filters were dried and counted in a gamma counter for bound radioactivity. […] Maximal specific binding (100%) was defined as the difference in radioactivity (cpm) bound to cell membranes in the absence and presence of 1 μM NDP-α-MSH. […] Each assay was conducted in triplicate and the actual mean values are described, with results less than 0% reported as 0%. Ki values for test peptides of the present invention were determined using Graph-Pad Prism® curve-fitting software.

The target in test [2] is T1, hMC4-R. The experiment in a line: High and low density hMC4-R functional assay (cAMP, HEK293-T-REx-MC4-R cells). The note with it: for Emax: NDP-α-MSH = 100%, read-out: Intrinsic Activity (%). In kind it is cell-based. The procedure: The cells were then dispensed into 96-well plates (BD 353916) in 198 μL (about 5×10^4) cells/well and incubated for 10 minutes at 37° C. The compound to be tested was diluted with DMSO to a final concentration of 1 mM. […] 120 μL of the 1 mM compound stock was pipetted in the second column on the plate. […] All assay samples were run in duplicate (i.e. each sample was in two low dox and two high dox plates, respectively). The plates were gently shaken and incubated for 15 minutes at 37° C.

[3] abbreviates: 0.1 ng/mL Doxycycline (low density hMC4-R system).
Where [4] appears, read: 10 ng/mL Doxycycline (high density hMC4-R system).

T1 sequence (P32245 whole entry): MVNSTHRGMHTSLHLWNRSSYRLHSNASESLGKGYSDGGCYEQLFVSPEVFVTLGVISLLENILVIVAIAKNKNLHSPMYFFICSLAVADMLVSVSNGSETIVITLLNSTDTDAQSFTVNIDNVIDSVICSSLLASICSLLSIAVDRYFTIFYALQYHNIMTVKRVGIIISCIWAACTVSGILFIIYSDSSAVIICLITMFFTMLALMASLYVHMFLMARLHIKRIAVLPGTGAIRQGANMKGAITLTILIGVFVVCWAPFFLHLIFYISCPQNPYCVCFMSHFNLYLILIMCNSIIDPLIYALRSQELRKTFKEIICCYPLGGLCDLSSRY

For orientation: Ki means the equilibrium dissociation constant of an inhibitor or competing ligand from its target. As a reminder, the EC50 is the concentration at which the effect is half-maximal. Read a low EC50 as an effect from little substance. For `CC(=O)N[C@@H](CCCNC(=N)N)C(=O)N[C@H]1CCC(=O)NCCC[C@@H](C(N)=O)NC(=O)[C@H](Cc2c[nH]c3ccccc23)NC(=O)[C@H](CCCNC(=N)N)NC(=O)[C@@H](Cc2cccc(Cl)c2)NC(=O)[C@H](CCN)NC1=O` [Example 2, Ac-Arg-cyclo(Glu-Dab-D-Phe(3-Cl)-Arg-Trp-Orn)-NH2], the Ki at hMC4-R [1] came out at 0.75 nM. At hMC4-R [2] (setting [3]), the EC50 amounted to 0.56 nM and the Emax came out at 36%. Moreover, on hMC4-R [2] (setting [4]), the concentration for a half-maximal effect (EC50) is 0.095 nM and the Emax turned out to be 99%.
Regarding `CC(=O)N[C@@H](CCCNC(=N)N)C(=O)N[C@H]1CCC(=O)NCCC[C@@H](C(N)=O)NC(=O)[C@H](Cc2c[nH]c3ccccc23)NC(=O)[C@H](CCCNC(=N)N)NC(=O)[C@@H](Cc2ccc(C#N)cc2)NC(=O)[C@H](CCN)NC1=O` [Example 7, Ac-Arg-cyclo(Glu-Dab-D-Phe(4-CN)-Arg-Trp-Orn)-NH2], the inhibitory constant (Ki) on hMC4-R [1] is 0.833 nM. For the same compound, at hMC4-R [2] (setting [3]), the EC50 was 0.3 nM and the Emax amounted to 48%. At hMC4-R [2] (setting [4]), the EC50 worked out at 0.135 nM and the Emax came out at 100%.
The like results for `CC(=O)N[C@@H](CCCNC(=N)N)C(=O)N[C@H]1CCC(=O)NCCC[C@@H](C(N)=O)NC(=O)[C@H](Cc2c[nH]c3ccccc23)NC(=O)[C@H](CCCNC(=N)N)NC(=O)[C@@H](Cc2ccc(O)cc2)NC(=O)[C@H](CCN)NC1=O` [Example 8, Ac-Arg-cyclo(Glu-Dab-D-Tyr-Arg-Trp-Orn)-NH2] were, in that order, 75 nM, 48 nM, 71%, 0.55 nM and 87%.
The like results for `CC(=O)N[C@@H](CCCNC(=N)N)C(=O)N[C@H]1CCC(=O)NCCC[C@@H](C(N)=O)NC(=O)[C@H](Cc2c[nH]c3ccccc23)NC(=O)[C@H](CCCNC(=N)N)NC(=O)[C@@H](Cc2ccccc2F)NC(=O)[C@H](CCN)NC1=O` [Example 9, Ac-Arg-cyclo(Glu-Dab-D-Phe(2-F)-Arg-Trp-Orn)-NH2] were, in that order, 0.7 nM, 0.09 nM, 91%, 0.035 nM and 89%.
Taken in the same sequence, the figures for `CC(=O)N[C@@H](CCCNC(=N)N)C(=O)N[C@H]1CCC(=O)NCCC[C@@H](C(N)=O)NC(=O)[C@H](Cc2c[nH]c3ccccc23)NC(=O)[C@H](CCCNC(=N)N)NC(=O)[C@@H](Cc2ccccc2C#N)NC(=O)[C@H](CCN)NC1=O` [Example 12, Ac-Arg-cyclo(Glu-Dab-D-Phe(2-CN)-Arg-Trp-Orn)-NH2] were 45 nM, 34 nM, 64%, 0.5 nM and 97%.
For the compound `CC(=O)N[C@@H](CCCNC(=N)N)C(=O)N[C@H]1CCC(=O)NCCC[C@@H](C(N)=O)NC(=O)[C@H](Cc2c[nH]c3ccccc23)NC(=O)[C@H](CCCNC(=N)N)NC(=O)[C@@H](Cc2cccc(C(F)(F)F)c2)NC(=O)[C@H](CCN)NC1=O` [Example 14, Ac-Arg-cyclo(Glu-Dab-D-Phe(3-CF3)-Arg-Trp-Orn)-NH2], the Ki at hMC4-R [1] came to 0.95 nM. In addition, the EC50 was 8 nM at hMC4-R [2] (setting [3]) and 0.4 nM on hMC4-R [2] (setting [4]). Moreover, the values for the Emax at hMC4-R [2] (setting [3]) and at hMC4-R [2] (setting [4]) were 16% and 93%, respectively.
For the compound `CC(=O)N[C@H](CCCNC(=N)N)C(=O)N[C@H]1CC(=O)NCCCC[C@@H](C(N)=O)NC(=O)[C@H](Cc2c[nH]c3ccccc23)NC(=O)[C@H](CCCNC(=N)N)NC(=O)[C@@H](Cc2ccc(C#N)cc2)NC(=O)[C@H](CCC(N)=O)NC1=O` [Example 81, Ac-D-Arg-cyclo(Asp-Gln-D-Phe(4-CN)-Arg-Trp-Lys)-NH2], on hMC4-R [2] (setting [3]), the EC50 was 4 nM and the Emax worked out at 23%. Further, on hMC4-R [2] (setting [4]), a half-maximal response (EC50) required 0.45 nM and the Emax was 85%.
Take `CC(=O)N[C@@H](CCCNC(=N)N)C(=O)N[C@H]1CCC(=O)NCCC[C@@H](C(=O)O)NC(=O)[C@H](Cc2c[nH]c3ccccc23)NC(=O)[C@H](CCCNC(=N)N)NC(=O)[C@@H](Cc2ccc(C#N)cc2)NC(=O)[C@H](CC(N)=O)NC1=O` [Example 85, Ac-Arg-cyclo(Glu-Asn-D-Phe(4-CN)-Arg-Trp-Orn)-OH]: on hMC4-R [2] (setting [3]), the EC50 was determined as 15 nM and the Emax stood at 36%. Also, the Emax at hMC4-R [2] (setting [4]) amounted to 94%.
Consider `CC(=O)N[C@@H](CCCNC(=N)N)C(=O)N[C@H]1CCCNC(=O)CC[C@@H](C(N)=O)NC(=O)[C@H](Cc2c[nH]c3ccccc23)NC(=O)[C@H](CCCNC(=N)N)NC(=O)[C@@H](Cc2ccc(C#N)cc2)NC(=O)[C@H](CCC(N)=O)NC1=O` [Example 94, Ac-Arg-cyclo(Orn-Gln-D-Phe(4-CN)-Arg-Trp-Glu)-NH2], for which, at hMC4-R [2] (setting [3]), the Emax came out at 32%. On hMC4-R [2] (setting [4]), it took 0.09 nM to reach a half-maximal effect (EC50) and the Emax was 92%.
The like results for `CC(=O)N[C@@H](CCCNC(=N)N)C(=O)N[C@H]1CCC(=O)NCCC[C@@H](C(=O)O)NC(=O)[C@H](Cc2c[nH]c3ccccc23)NC(=O)[C@H](CCCNC(=N)N)NC(=O)[C@@H](Cc2cc(F)c(F)c(F)c2)NC(=O)[C@H](CCC(N)=O)NC1=O` [Example 97, Ac-Arg-cyclo(Glu-Gln-D-Phe(3,4,5-triF)-Arg-Trp-Orn)-NH2] were, in that order, 49%, 0.1 nM and 100%.
As for `CC(=O)N[C@@H](CCCNC(=N)N)C(=O)N[C@H]1CCCNC(=O)CC[C@@H](C(N)=O)NC(=O)[C@H](Cc2c[nH]c3ccccc23)NC(=O)[C@H](CCCNC(=N)N)NC(=O)[C@@H](Cc2cc(F)c(F)c(F)c2)NC(=O)[C@H](CCC(N)=O)NC1=O` [Example 98, Ac-Arg-cyclo(Orn-Gln-D-Phe(3,4,5-triF)-Arg-Trp-Glu)-NH2], on hMC4-R [2] (setting [3]), the midpoint of the response, the EC50, lay at 0.45 nM and the Emax is 47%. Moreover, on hMC4-R [2] (setting [4]), the EC50 amounted to 0.14 nM and the Emax came out at 100%.
Consider `CC(=O)N[C@@H](CCCNC(=N)N)C(=O)N[C@H]1CCC(=O)NCCC[C@@H](C(N)=O)NC(=O)[C@H](Cc2c[nH]c3ccccc23)NC(=O)[C@H](CCCNC(=N)N)NC(=O)[C@@H](Cc2ccc(F)cc2)NC(=O)[C@@H]2CCCN2C1=O` [Example 102, Ac-Arg-cyclo(Glu-Pro-D-Phe(4-F)-Arg-Trp-Orn)-OH], for which, at hMC4-R [2] (setting [3]), the EC50 was found to be 18 nM.
As for `CC(=O)N[C@@H](CCCNC(=N)N)C(=O)N[C@H]1CC(=O)NCCCC[C@@H](C(N)=O)NC(=O)[C@H](Cc2c[nH]c3ccccc23)NC(=O)[C@H](CCCNC(=N)N)NC(=O)[C@@H](Cc2ccccc2F)NC(=O)[C@@H]2CCCN2C1=O` [Example 104, Ac-Arg-cyclo(Asp-Pro-D-Phe(2-F)-Arg-Trp-Lys)-NH2], the Emax at hMC4-R [2] (setting [3]) is 16%. In addition, on hMC4-R [2] (setting [4]), the EC50 is 10 nM and the Emax was 100%.
On to `CC(=O)N[C@@H](CCCNC(=N)N)C(=O)N[C@H]1CCC(=O)NCCC[C@@H](C(=O)O)NC(=O)[C@H](Cc2c[nH]c3ccccc23)NC(=O)[C@H](CCCNC(=N)N)NC(=O)[C@@H](Cc2ccc(C#N)cc2)NC(=O)[C@H](CCC(=O)O)NC1=O` [Example 109, Ac-Arg-cyclo(Glu-Glu-D-Phe(4-CN)-Arg-Trp-Orn)-OH] (Ac-REE[dPhe(4-CN)]RW[Orn]-OH; lactam 2-7), for which the Emax on hMC4-R [2] (setting [3]) came out at 2%; on hMC4-R [2] (setting [4]), 69%.
